{"source": "PubChem BioAssay (NCI)", "experiment_in_all_cases": "NCI tumour cell line growth inhibition, 48 h", "key": {"[1]": {"test_system": "BT-549 breast"}, "[2]": {"test_system": "COLO 205 colon"}, "[3]": {"test_system": "HCC-2998 colon"}, "[4]": {"test_system": "HCT-116 colon"}, "[5]": {"test_system": "HCT-15 colon"}, "[6]": {"test_system": "IGROV1 ovarian"}, "[7]": {"test_system": "LOX IMVI melanoma"}, "[8]": {"test_system": "MDA-MB-435"}, "[9]": {"test_system": "MOLT-4 leukemia"}, "[10]": {"test_system": "NCI-H23 lung"}, "[11]": {"test_system": "OVCAR-8 ovarian"}, "[12]": {"test_system": "RPMI-8226 leukemia"}, "[13]": {"test_system": "SW-620 colon"}, "[14]": {"test_system": "TK-10 renal"}, "[15]": {"test_system": "UACC-257 melanoma"}, "[16]": {"test_system": "UACC-62 melanoma"}, "[17]": {"test_system": "UO-31 renal"}, "[18]": {"test_system": "K-562 leukemia"}}, "note": "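Protocol summary: plate cells (96-well), add compound at 5 concentrations, incubate 48 h, interpolate endpoints linearly. TGI denotes the concentration required for complete inhibition of growth.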"}
{"smiles": "CC1(C)C=Cc2c(cc3oc4ccc5c(c4c(=O)c3c2O)C=CC(C)(C)O5)O1", "values": [{"measurement": "TGI", "setting": "[1]", "result": "> 100", "unit": "µM"}, {"measurement": "TGI", "setting": "[2]", "result": "> 100", "unit": "µM"}, {"measurement": "TGI", "setting": "[3]", "result": "> 100", "unit": "µM"}, {"measurement": "TGI", "setting": "[4]", "result": "> 100", "unit": "µM"}, {"measurement": "TGI", "setting": "[5]", "result": "> 100", "unit": "µM"}, {"measurement": "TGI", "setting": "[6]", "result": "> 100", "unit": "µM"}, {"measurement": "TGI", "setting": "[7]", "result": "> 100", "unit": "µM"}, {"measurement": "TGI", "setting": "[8]", "result": "> 100", "unit": "µM"}, {"measurement": "TGI", "setting": "[9]", "result": "> 100", "unit": "µM"}, {"measurement": "TGI", "setting": "[10]", "result": "> 100", "unit": "µM"}, {"measurement": "TGI", "setting": "[11]", "result": "> 100", "unit": "µM"}, {"measurement": "TGI", "setting": "[12]", "result": "> 100", "unit": "µM"}, {"measurement": "TGI", "setting": "[13]", "result": "> 100", "unit": "µM"}, {"measurement": "TGI", "setting": "[14]", "result": "> 100", "unit": "µM"}, {"measurement": "TGI", "setting": "[15]", "result": "> 100", "unit": "µM"}, {"measurement": "TGI", "setting": "[16]", "result": "> 100", "unit": "µM"}, {"measurement": "TGI", "setting": "[17]", "result": "> 100", "unit": "µM"}]}
{"smiles": "O=C1C=CC(=O)c2c1cc([N+](=O)[O-])c1ccoc21", "values": [{"measurement": "TGI", "setting": "[1]", "result": 30.8, "unit": "µM"}, {"measurement": "TGI", "setting": "[2]", "result": 8.63, "unit": "µM"}, {"measurement": "TGI", "setting": "[3]", "result": 41.6, "unit": "µM"}, {"measurement": "TGI", "setting": "[4]", "result": 12.5, "unit": "µM"}, {"measurement": "TGI", "setting": "[5]", "result": 58.5, "unit": "µM"}, {"measurement": "TGI", "setting": "[6]", "result": 51.9, "unit": "µM"}, {"measurement": "TGI", "setting": "[18]", "result": "> 100", "unit": "µM"}, {"measurement": "TGI", "setting": "[7]", "result": "> 44.5", "unit": "µM"}, {"measurement": "TGI", "setting": "[8]", "result": 26.2, "unit": "µM"}, {"measurement": "TGI", "setting": "[10]", "result": 46.2, "unit": "µM"}, {"measurement": "TGI", "setting": "[11]", "result": "> 72.3", "unit": "µM"}, {"measurement": "TGI", "setting": "[12]", "result": "> 100", "unit": "µM"}, {"measurement": "TGI", "setting": "[13]", "result": "> 100", "unit": "µM"}, {"measurement": "TGI", "setting": "[14]", "result": 4.37, "unit": "µM"}, {"measurement": "TGI", "setting": "[15]", "result": 32.4, "unit": "µM"}, {"measurement": "TGI", "setting": "[16]", "result": 29.4, "unit": "µM"}, {"measurement": "TGI", "setting": "[17]", "result": 8.09, "unit": "µM"}]}
{"smiles": "COc1ccc2c(c1)CCN=C2Cc1ccccc1CCCl", "values": [{"measurement": "TGI", "setting": "[1]", "result": "> 100", "unit": "µM"}, {"measurement": "TGI", "setting": "[2]", "result": 40, "unit": "µM"}, {"measurement": "TGI", "setting": "[3]", "result": 42.1, "unit": "µM"}, {"measurement": "TGI", "setting": "[4]", "result": "> 100", "unit": "µM"}, {"measurement": "TGI", "setting": "[5]", "result": "> 100", "unit": "µM"}, {"measurement": "TGI", "setting": "[6]", "result": "> 100", "unit": "µM"}, {"measurement": "TGI", "setting": "[18]", "result": "> 100", "unit": "µM"}, {"measurement": "TGI", "setting": "[8]", "result": 45.4, "unit": "µM"}, {"measurement": "TGI", "setting": "[9]", "result": "> 100", "unit": "µM"}, {"measurement": "TGI", "setting": "[10]", "result": 81.8, "unit": "µM"}, {"measurement": "TGI", "setting": "[11]", "result": 67.9, "unit": "µM"}, {"measurement": "TGI", "setting": "[12]", "result": 46.7, "unit": "µM"}, {"measurement": "TGI", "setting": "[13]", "result": "> 100", "unit": "µM"}, {"measurement": "TGI", "setting": "[14]", "result": "> 100", "unit": "µM"}, {"measurement": "TGI", "setting": "[15]", "result": 88.9, "unit": "µM"}, {"measurement": "TGI", "setting": "[16]", "result": 52.7, "unit": "µM"}, {"measurement": "TGI", "setting": "[17]", "result": 43.9, "unit": "µM"}]}
{"smiles": "N#CC1(C#N)NC(c2cccnc2)C(C#N)(C#N)NC1c1cccnc1", "note": "(configuration not stated)", "values": [{"measurement": "TGI", "setting": "[1]", "result": "> 100", "unit": "µM"}, {"measurement": "TGI", "setting": "[2]", "result": "> 100", "unit": "µM"}, {"measurement": "TGI", "setting": "[3]", "result": "> 100", "unit": "µM"}, {"measurement": "TGI", "setting": "[4]", "result": "> 100", "unit": "µM"}, {"measurement": "TGI", "setting": "[5]", "result": "> 100", "unit": "µM"}, {"measurement": "TGI", "setting": "[6]", "result": "> 100", "unit": "µM"}, {"measurement": "TGI", "setting": "[18]", "result": "> 100", "unit": "µM"}, {"measurement": "TGI", "setting": "[7]", "result": "> 100", "unit": "µM"}, {"measurement": "TGI", "setting": "[8]", "result": "> 100", "unit": "µM"}, {"measurement": "TGI", "setting": "[9]", "result": "> 100", "unit": "µM"}, {"measurement": "TGI", "setting": "[10]", "result": "> 100", "unit": "µM"}, {"measurement": "TGI", "setting": "[11]", "result": "> 100", "unit": "µM"}, {"measurement": "TGI", "setting": "[12]", "result": "> 100", "unit": "µM"}, {"measurement": "TGI", "setting": "[13]", "result": "> 100", "unit": "µM"}, {"measurement": "TGI", "setting": "[14]", "result": "> 100", "unit": "µM"}, {"measurement": "TGI", "setting": "[15]", "result": "> 100", "unit": "µM"}, {"measurement": "TGI", "setting": "[16]", "result": "> 100", "unit": "µM"}]}
{"smiles": "CC1(C)O[C@H]([C@H](O)c2nnc3ccc(Cl)nn23)[C@@H]([C@H]2COC(C)(C)O2)O1", "values": [{"measurement": "TGI", "setting": "[1]", "result": "> 100", "unit": "µM"}, {"measurement": "TGI", "setting": "[2]", "result": "> 100", "unit": "µM"}, {"measurement": "TGI", "setting": "[3]", "result": "> 100", "unit": "µM"}, {"measurement": "TGI", "setting": "[4]", "result": "> 100", "unit": "µM"}, {"measurement": "TGI", "setting": "[5]", "result": "> 100", "unit": "µM"}, {"measurement": "TGI", "setting": "[6]", "result": "> 100", "unit": "µM"}, {"measurement": "TGI", "setting": "[7]", "result": "> 100", "unit": "µM"}, {"measurement": "TGI", "setting": "[8]", "result": "> 100", "unit": "µM"}, {"measurement": "TGI", "setting": "[9]", "result": "> 100", "unit": "µM"}, {"measurement": "TGI", "setting": "[10]", "result": "> 100", "unit": "µM"}, {"measurement": "TGI", "setting": "[11]", "result": "> 100", "unit": "µM"}, {"measurement": "TGI", "setting": "[12]", "result": "> 100", "unit": "µM"}, {"measurement": "TGI", "setting": "[13]", "result": "> 100", "unit": "µM"}, {"measurement": "TGI", "setting": "[14]", "result": "> 100", "unit": "µM"}, {"measurement": "TGI", "setting": "[15]", "result": "> 100", "unit": "µM"}, {"measurement": "TGI", "setting": "[16]", "result": "> 100", "unit": "µM"}]}
{"smiles": "Cc1[nH]n(C2=NCCN2)c(=O)c1C", "values": [{"measurement": "TGI", "setting": "[1]", "result": "> 100", "unit": "µM"}, {"measurement": "TGI", "setting": "[2]", "result": "> 100", "unit": "µM"}, {"measurement": "TGI", "setting": "[4]", "result": "> 100", "unit": "µM"}, {"measurement": "TGI", "setting": "[5]", "result": "> 100", "unit": "µM"}, {"measurement": "TGI", "setting": "[6]", "result": "> 100", "unit": "µM"}, {"measurement": "TGI", "setting": "[18]", "result": "> 100", "unit": "µM"}, {"measurement": "TGI", "setting": "[7]", "result": "> 100", "unit": "µM"}, {"measurement": "TGI", "setting": "[8]", "result": "> 100", "unit": "µM"}, {"measurement": "TGI", "setting": "[9]", "result": "> 100", "unit": "µM"}, {"measurement": "TGI", "setting": "[10]", "result": "> 100", "unit": "µM"}, {"measurement": "TGI", "setting": "[11]", "result": "> 100", "unit": "µM"}, {"measurement": "TGI", "setting": "[12]", "result": "> 100", "unit": "µM"}, {"measurement": "TGI", "setting": "[13]", "result": "> 100", "unit": "µM"}, {"measurement": "TGI", "setting": "[14]", "result": "> 100", "unit": "µM"}, {"measurement": "TGI", "setting": "[15]", "result": "> 100", "unit": "µM"}, {"measurement": "TGI", "setting": "[16]", "result": "> 100", "unit": "µM"}, {"measurement": "TGI", "setting": "[17]", "result": "> 100", "unit": "µM"}]}
{"smiles": "Cc1ccc(-c2cc(-c3ccc(Cl)cc3)nc(/N=C3\\C(=O)N(CN4CCOCC4)c4ccccc43)n2)cc1", "values": [{"measurement": "TGI", "setting": "[1]", "result": 88.5, "unit": "µM"}, {"measurement": "TGI", "setting": "[2]", "result": 79.8, "unit": "µM"}, {"measurement": "TGI", "setting": "[3]", "result": 34, "unit": "µM"}, {"measurement": "TGI", "setting": "[4]", "result": 93.9, "unit": "µM"}, {"measurement": "TGI", "setting": "[5]", "result": "> 100", "unit": "µM"}, {"measurement": "TGI", "setting": "[6]", "result": 39.3, "unit": "µM"}, {"measurement": "TGI", "setting": "[18]", "result": 76.8, "unit": "µM"}, {"measurement": "TGI", "setting": "[7]", "result": 50.5, "unit": "µM"}, {"measurement": "TGI", "setting": "[8]", "result": 35, "unit": "µM"}, {"measurement": "TGI", "setting": "[9]", "result": 35.8, "unit": "µM"}, {"measurement": "TGI", "setting": "[10]", "result": 46, "unit": "µM"}, {"measurement": "TGI", "setting": "[11]", "result": 50.8, "unit": "µM"}, {"measurement": "TGI", "setting": "[13]", "result": 62.8, "unit": "µM"}, {"measurement": "TGI", "setting": "[14]", "result": 81.7, "unit": "µM"}, {"measurement": "TGI", "setting": "[15]", "result": 46.4, "unit": "µM"}, {"measurement": "TGI", "setting": "[16]", "result": 41.4, "unit": "µM"}]}
